Reference: patent publication US20160346249A1 (priority 2012, published 2016)
Where two headings read alike, the source gives them in different places.

Legend:
[1] = Acute intravenous or oral mouse bioavailability study; type: in vivo; conditions: plasma, fasted male mice, oral 6 mg/kg vs IV 5 mg/kg
Description: Fasted male mice were used in this study. Concentrations were determined using an LC/MS/MS assay following liquid-liquid extraction of plasma samples. Bioavailability was calculated using the mean normalized AUC0-∞ values obtained following oral administration of 6 mg/kg relative to the mean normalized AUC0-∞ at 5 mg/kg IV.

[2] = 13-week dog toxicity and toxicokinetic study; type: in vivo; conditions: for AUC(0-t) / Cmax / Tmax: beagle, dog, in vivo; for AUC(0-t): read-out: AUC0-24; for body weight gain during the study: 20 mg/kg; for mean body weight lower than control: end of study
Description: […] For toxicology assessment, clinical observations, body weight, and food consumption measures were recorded periodically during the study. Ophthalmic examinations were performed and ECGs recorded during Weeks −1 and 12. Clinical pathology evaluations (hematology, serum chemistry, and urinalysis) were performed prior to the initiation of dose administration (Week −1) and prior to the scheduled necropsy (Week 13). At termination, complete necropsies were performed on all dogs and selected organs were weighed. Selected tissues from the control and 20 mg/kg/day group animals and animals euthanized in extremis were examined microscopically. Gross lesions from the 2 and 6 mg/kg/day groups were also examined.

[3] = Rat pilot developmental toxicity study
Description: Clinical observations, body weights, and food consumption were recorded periodically. On GD 20, a laparohysterectomy was performed on each surviving female. The uteri, placentas, and ovaries were examined; gravid uterine weights, the numbers of fetuses, early and late resorptions, total implantations, and corpora lutea were recorded. The fetuses were weighed, sexed, and examined for external malformations and developmental variations.

[4] = Rabbit pilot developmental toxicity study; type: in vivo; conditions: 30 mg/kg/day, GD 14
Description: On GD 29, a laparohysterectomy was performed on each surviving female.

[5] = Rat CNS study (functional observational battery, locomotor activity); conditions: Crl:CD(SD)IGS BR, in vivo; for mean rearing counts lower than control, 2-minute open field: po; for mean rearing counts lower than control, 2-minute open field / mean urination values higher than control: 1 h
Description: There were eight animals of each gender per group. Functional observational battery (FOB) assessments and automated 1-hour locomotor activity data were recorded for all animals 7 days prior to dose administration (pre-test), and again beginning 1 hour following dosing on Day 0. Following completion of the FOB and locomotor activity evaluations, all animals were euthanized and discarded.

[6] = Rat pulmonary function study; type: in vivo; conditions: for animals with test article-related clinical observations: 6 hours post-dosing
Description: There were eight male rats per group. Clinical examinations were performed daily, and detailed physical examinations were performed prior to dosing and again following pulmonary functional assessments. Four replicates of 2 animals from each treatment group were evaluated over a 2-week period. Following dose administration, the rats were placed in a head-out neck-sealed plethysmograph for measurement of pulmonary function parameters (respiratory rate, tidal volume, and calculated minute volume). Pulmonary function data were collected for at least 60 minutes prior to dosing (Day −1) and for at least 6 hours post-dosing on Day 0.

[7] = Single-dose intravenous rat toxicology study; conditions: Crl:CD(SD)IGS BR, in vivo
Description: Clinical observations, body weights, and food consumption were noted periodically. All animals were euthanized following a minimum 13-day non-dosing (recovery) period. Clinical pathology evaluations (hematology and serum chemistry) were performed on all rats at the time of necropsy and selected organs were weighed. No microscopic examinations were performed.

[8] = female, po, 2 mg/kg/day, females, 2 mg/kg/day, Day 0
[9] = female, po, 2 mg/kg/day, females, 2 mg/kg/day, Day 86
[10] = female, po, 6 mg/kg/day, females, 6 mg/kg/day, Day 0
[11] = female, po, 6 mg/kg/day, females, 6 mg/kg/day, Day 86
[12] = female, po, 20 mg/kg/day, females, 20 mg/kg/day, Day 0
[13] = female, po, 20 mg/kg/day, females, 20 mg/kg/day, Day 86
[14] = male, po, 2 mg/kg/day, males, 2 mg/kg/day, Day 0
[15] = male, po, 2 mg/kg/day, males, 2 mg/kg/day, Day 86
[16] = male, po, 6 mg/kg/day, males, 6 mg/kg/day, Day 0
[17] = male, po, 6 mg/kg/day, males, 6 mg/kg/day, Day 86
[18] = male, po, 20 mg/kg/day, males, 20 mg/kg/day, Day 0
[19] = male, po, 20 mg/kg/day, males, 20 mg/kg/day, Day 86

Structure (SMILES): Clc1ccc([C@]23CNC[C@H]2C3)cc1Cl [amitifadine, (+)-1-(3,4-dichlorophenyl)-3-azabicyclo[3.1.0]hexane]
- bioavailability [1]: ~16%
- AUC(0-t) ([2]; female, oral, 6 mg/kg/day, females, 6 mg/kg/day, Day 86): 15900 ng·h/mL
- Cmax [2, 8]: 635 ng/mL
- Tmax [2, 8]: 1 h
- AUC(0-t) [2, 8]: 1480 ng·h/mL
- Cmax [2, 9]: 663 ng/mL
- Tmax [2, 9]: 1 h
- AUC(0-t) [2, 9]: 2150 ng·h/mL
- Cmax [2, 10]: 5120 ng/mL
- Tmax [2, 10]: 1 h
- AUC(0-t) [2, 10]: 13600 ng·h/mL
- Cmax [2, 11]: 4850 ng/mL
- Tmax [2, 11]: 1 h
- Cmax [2, 12]: 9280 ng/mL
- Tmax [2, 12]: 2 h
- AUC(0-t) [2, 12]: 63600 ng·h/mL
- Cmax [2, 13]: 8430 ng/mL
- Tmax [2, 13]: 1 h
- AUC(0-t) [2, 13]: 29600 ng·h/mL
- body weight gain during the study ([2]; females): 0.4 ± 0.79 kg
- mean body weight lower than control ([2]; females, 20 mg/kg/day): 9%
- AUC(0-t) ([2]; male, oral, 6 mg/kg/day, males, 6 mg/kg/day, Day 86): 13100 ng·h/mL
- Cmax [2, 14]: 507 ng/mL
- Tmax [2, 14]: 1 h
- AUC(0-t) [2, 14]: 1570 ng·h/mL
- Cmax [2, 15]: 753 ng/mL
- Tmax [2, 15]: 1 h
- AUC(0-t) [2, 15]: 2280 ng·h/mL
- Cmax [2, 16]: 4640 ng/mL
- Tmax [2, 16]: 1 h
- AUC(0-t) [2, 16]: 12800 ng·h/mL
- Cmax [2, 17]: 4140 ng/mL
- Tmax [2, 17]: 1 h
- Cmax [2, 18]: 11400 ng/mL
- Tmax [2, 18]: 1 h
- AUC(0-t) [2, 18]: 47800 ng·h/mL
- Cmax [2, 19]: 7230 ng/mL
- Tmax [2, 19]: 1 h
- AUC(0-t) [2, 19]: 44000 ng·h/mL
- body weight gain during the study ([2]; males): -0.3 ± 0.58 kg
- food consumption less than control ([2]; males, 20 mg/kg/day): ≥ 10%
- mean body weight lower than control ([2]; males, 20 mg/kg/day): 13%
- mean fetal weight ([3]; 25 mg/kg/day): statistically significant reduction in mean fetal weight
- maternal mortality ([3]; 50 mg/kg/day, GD 8, 9 or 10): all females in the 50 mg/kg/day group were euthanized in extremis
- maternal outcome [4]: all females in the 30 mg/kg/day group were euthanized on GD 14
- NOAEL ([5]; both sexes, single oral gavage, read-out: NOAEL for CNS toxicity): 100 mg/kg
- mean rearing counts lower than control, 2-minute open field ([5]; female, 30 mg/kg): 67.1%
- mean rearing counts lower than control, 2-minute open field ([5]; female, 100 mg/kg): 78.6%
- mean urination values higher than control ([5]; male, 10 mg/kg): approximately 3 fold
- mean urination values higher than control ([5]; male, 30 mg/kg): approximately 3 fold
- mean urination values higher than control ([5]; male, 100 mg/kg): ~5 fold
- mean rearing counts lower than control, 2-minute open field ([5]; male, 100 mg/kg): 56.5%
- animals with test article-related clinical observations ([6]; 30 mg/kg): ⅜
- increased respiratory frequency ([6]; 100 mg/kg, 16 to 30 minutes post-dosing): 23%
- animals with test article-related clinical observations ([6]; 100 mg/kg): 6/8
- elevated respiratory frequency ([6]; 100 mg/kg, later post-treatment intervals): ≥ 33%
- NOAEL ([6]; male, Crl:CD(SD)IGS BR, rat, in vivo, single oral gavage): 30 mg/kg
- NOAEL at 13 days ([7]; female rats): 5 mg/kg
- NOAEL at 13 days ([7]; male rats): 1.5 mg/kg
